Measurements: article PMC9189929, “Synthesis, Screening and Characterization of Novel Potent Arp2/3 Inhibitory Compounds Analogous to CK-666” (Frontiers in Pharmacology, 2022)
≈ marks a conversion by molar mass, not a printed value. Entries after “also recorded” stand apart in the source; their conditions may differ.

Key:
Arp2/3 = molecular target: T1, Arp2/3 (Bos taurus, UniProt A7MB62+P61157); assay: Pyrene-actin polymerization assay; format: biochemical, bovine; settings: for IC50: 1.5 μM actin (10% pyrenyl-labeled), read-out: IC50 of Arp2/3-mediated actin polymerization; for IC50 / Arp2/3 inhibition reached at saturation: 20 nM Arp2/3, 250 nM N-WASP VCA; for Arp2/3 inhibition reached at saturation: 1.5 μM actin
T1 construct: purchased Cytoskeleton, Inc
Description: Actin was purified from rabbit muscle and was pyrenyl-labeled ([Carlier et al., 1984]; [Malm, 1984]). Arp2/3 was from Cytoskeleton, Inc. VCA domain of N-WASP was purified as previously described ([Clainche et al., 2003]). Pyrene-actin polymerization assays were performed as previously ([Romero et al., 2007]). Briefly, CaATP-actin was converted into MgATP-actin in (5 mM Tris, 0.2 mM ATP, 0.1 mM CaCl2, 1 mM DTT, 1 mM MgCl2, and 0.2 mM EGTA, pH 7.6) and kept on ice for no more than 1 h. Actin polymerization was monitored in (5 mM Tris, 50 mM KCl, 0.2 mM ATP, 0.1 mM CaCl2, 1 mM DTT, 1 mM MgCl2, 0.2 mM EGTA, pH 7.6) in the presence of 2% DMSO alone or 2% DMSO containing the appropriated compound concentration. The increase in fluorescence of 10% pyrenyl-labeled actin was monitored using a Safas spectrofluorimeter (λexc = 366 nm, λem = 407 nm). The maximum rate of actin polymerization was derived from the maximum slope of the polymerization curve multiplied by [total polymer]/(RFUmax—RFUmin) [total polymer] is the total actin minus the critical concentration (0.1 μM) and RFU, Relative Fluorescence Unit. The maximum elongation rates of actin polymerization were plotted as a function of the concentration of the different compounds. For CK-666, 59, 69 and 71, curves were fitted with the following equation to determine the IC50. Mrate= Rmax−Rmax−Rmin/1+IC50/(Compound Conc.) where Mrate is the measured maximum rate of actin polymerization at a given compound concentration, Rmax is the maximum rate of actin polymerization with no compound, and Rmin is the maximum rate of actin polymerization at saturating concentration of compound.
The curve of compound 15 was fitted with a linear decay. The IC50 was determined at half inhibition of actin polymerization.

B16-F1 cells [1] = assay: Lamellipodium formation in B16-F1 cells (cortactin immunofluorescence); format: cell-based, mouse; settings: for Inhibition of lamellipodium formation: 100 μM, 1 h; for Dose-dependent inhibition of lamellipodium formation, potency relative to CK-666: dose-dependent assay (Figure 2D)
Description: Lyophilized compounds were resuspended with fresh DMSO from sealed vials (cell biology grade). Compounds, stored at +4°C, were used within a week. B16-F1 cells were seeded onto glass coverslips coated for 1 h with 25 μg/ml laminin (Sigma) in (50 mM Tris, 150 mM NaCl, pH 7.4). […] Cell were then processed for immunofluorescence.
Cells were fixed in 3.2% PFA on PBS, then quenched with 50 mM NH4Cl and permeabilised with 0.5% Triton X-100. After blocking in 2% BSA cells were incubated with antibodies (1–5 μg/ml for the primary, 5 μg/ml for the secondary). Total actin in cells was visualized by phalloidin staining. Nuclei were stained with 0.3 μg/ml DAPI (Roche). Coverslips were mounted in Dako Fluorescence Mounting Medium (Agilent). For immunofluorescence, ARPC2 rabbit polyclonal antibody (Millipore, 07–227), Cortactin mouse monoclonal 4F11 (Millipore, 05–180) were used. Secondary goat anti-mouse and anti-rabbit antibodies conjugated with Alexa Fluor 555 and 647 respectively were from Life Technologies. Phalloidin conjugated with Alexa Fluor 488 was from Tebu-bio.
(§1) Image analysis was performed in ImageJ or FIJI software. To measure wound healing, boundaries of the wound were drawn manually at different time points, then wound size was measured.

B16-F1 cells [2] = assay: Wound healing (cell migration) of B16-F1 cells; format: cell-based, mouse; settings: for Inhibition of cell migration (wound healing) compared with 100 µM CK-666: compound at 25 µM
Description: For the wound healing, B16-F1 cells were seeded onto 8-well Ibidi dishes coated with laminin, and grown to confluence. Wounds in the cell monolayer were obtained by scratching the monolayer with a pipet tip. Detached cells were immediately washed away and new medium containing the various compounds was added. Cells were then used for videomicroscopy.
Videomicroscopy was performed on an inverted Axio Observer microscope (Zeiss) equipped with a Pecon Zeiss incubator XL multi S1 RED LS (Heating Unit XL S, Temp module, CO2 module, Heating Insert PS and CO2 cover), Definite focus module and a Hamamatsu camera C10600 Orca-R2. Phase contrast images were taken every 30 min for 24 h using the 10X/0.25 Plan-Apochromat air objective. For immunofluorescence, slides were observed and imaged with the 63X/1.4 Plan-Apochromat oil objective. Fluorophores were excited with the HBO 100 W lamp (Osram) installed in the HXP 120 Metal halide fluorescence light source (Zeiss).
as §1

MCF10A cells = assay: EdU incorporation / cell cycle progression screen in MCF10A cells; format: cell-based, human; settings: for Outcome of EdU incorporation screen: 0.025 to 100 μM; for IC50: Homo sapiens, MCF-10A, 18 h treatment, rough values from Figure 1 graphs, read-out: IC50 (concentration required for 50% decrease of EdU-positive cells)
Description: For cell cycle progression using EdU, MCF10A cells were seeded in 384-well plates at a density of 800 cells per well. […] EdU from kit C10337 (ThermoFischer Scientific, Waltham, MA, United States) was then added to the cells at 10 μM and incubated for 2.5 h. Cells were fixed in 4% paraformaldehyde for 30 min at room temperature. Click-iT reaction was performed for 1 h at room temperature, protected from light, with 5 µM Alexa Fluor 488 azide in (100 mM Tris, 1 mM CuSO4, 50 mM Ascorbic Acid, pH 8.5). Nuclei were counterstained with Hoechst 33,342 (Thermo Fisher Scientific). Imaging and analysis were performed using the ImageXpress Micro XL High-Content Screening System (Molecular Devices LLC, San Jose, CA, United States). IC50 values were determined by sigmoidal curve fitting using GraphPad Prism six software.

[3] = Maximum solubility in seawater; format: physicochemical; settings: saline or isotonic, kinetic from dmso stock, visible crystals formed at higher concentrations
Description: (§2) Stock solutions of compounds were prepared in DMSO at 50–250 mM concentration followed by a 10-fold dilution with 96% EtOH. This procedure enhanced the solubility of the test compounds in the salty seawater. Maximal tolerated concentrations of DMSO and EtOH in the assay were determined to be 0.05 and 1%, respectively. Higher concentrations of either DMSO (>0.1%) or EtOH (>1%) caused nonspecific alterations and retardation of the sea urchin embryo development independent of the treatment stage. Maximum solubility of compounds 15, 59, 69, and 71 was about 5–20 mM in seawater, since visible crystals formed at higher concentrations.

sea urchin embryos = assay: Sea urchin embryo development assay; format: in vivo, Paracentrotus lividus; settings: for Effect on archenteron elongation / Effect on primary mesenchyme cell (PMC) migration: observed up to four-arm mid-pluteus stage
Description: The procedure was described in detail in [Semenova et al., 2018]. Briefly, adult sea urchins, Paracentrotus lividus L (Echinidae), were collected from the Mediterranean Sea on the Cyprus coast and kept in an aerated seawater tank. Gametes were obtained by intracoelomic injection of 0.5 M KCl. Eggs were washed with filtered seawater and fertilized by adding drops of diluted sperm. Embryos were cultured at room temperature under gentle agitation with a motor-driven plastic paddle (60 rpm) in filtered seawater. […] For treatment with test compounds, 5 ml aliquots of embryo suspension were transferred to six-well plates and incubated at a concentration of 1,000–2,000 embryos/ml. For images, sedimented embryos were concentrated in the center of the well by gentle rotation of the culture plate, and 200 μl aliquots containing several hundred embryos were used to take pictures (up to 20 images from different fields). Embryos selected for Figure 4 were representative of the population.
as §2
The effects were assessed after exposure of fertilized eggs (8–15 min post fertilization, 45–55 min before the first mitotic cycle completion) to 2-fold decreasing concentrations of the compound. Embryonic development was monitored until the beginning of active feeding at four-arm pluteus stage (33–36 h postfertilization). Developmental abnormalities were estimated quantitatively as minimal effective concentration (MEC), resulting in inhibition of archenteron elongation or skeletal spicule formation.

[4] = treated at zygote stage, monitored to four-arm pluteus

Row | solubility [3] | IC50 (Arp2/3) | Arp2/3 inhibition reached at saturation (Arp2/3) | Structure (SMILES) | Inhibition of lamellipodium formation (B16-F1 cells [1]) | Outcome of EdU incorporation screen (MCF10A cells) | IC50 (MCF10A cells) | Inhibition of cell migration (wound healing) compared with 100 µM CK-666 (B16-F1 cells [2]) | further results
1 | – | – | – | COCC(=O)NCCc1c[nH]c2ccccc12 [CK-689, N-(2-(1H-Indol-3-yl)ethyl)-2-methoxy-acetamide, reference compound] | formed a single wide lamellipodium encompassing most cell perimeter | – | – | – | Activity against Arp2/3 in vitro (Arp2/3; pyrene-actin assay): inactive; Inhibition of wound healing (B16-F1 cells [2]; 100 µM): but not CK-689, inhibits wound healing
2 | – | – | – | Cc1[nH]c2ccccc2c1CCNC(=O)c1cc([N+](=O)[O-])ccc1Cl [Compound 12, 2-Chloro-N-[2-(2-methyl-1H-indol-3-yl)ethyl]-5-nitrobenzamide] | significantly less active than CK-666 | scored positive | 13.8 µM | – | –
3 | 5 to 20 µM (≈ 1.91 to 7.65 µg/mL) | 104 µM | 100% | Cc1[nH]c2ccccc2c1CCNC(=O)c1ccccc1C(=O)c1ccccc1 [Compound 15, 2-Benzoyl-N-[2-(2-methyl-1H-indol-3-yl)ethyl]benzamide] | – | scored positive | 20 µM | inhibited cell migration as efficiently as 100 µM CK-666 | Developmental abnormality (sea urchin embryos; 5 μM): suppressed plutei growth; Developmental abnormality (sea urchin embryos; 20 μM): Non-specific defects; also recorded: defective gastrulation was observed; Minimum effective concentration, Systemic Toxicity (sea urchin embryos; [4]): 5 µM; Dose-dependent inhibition of lamellipodium formation, potency relative to CK-666 (B16-F1 cells [1]): significantly more potent than CK-666; Cell rounding and detachment in wound healing assay (B16-F1 cells [2]; 25 µM): not observed; Cell rounding and detachment in wound healing assay (B16-F1 cells [2]; 100 µM): induced cell rounding followed by detachment from the substrate
4 | – | – | – | CCc1cc2cc(C(=O)NCCc3c(C)[nH]c4ccc(C)cc34)sc2s1 [Compound 24, N-[2-(2,5-Dimethyl-1H-indol-3-yl)ethyl]-5-ethylthieno[2,3-b]thiophene-2-carboxamide] | significantly less active than CK-666 | scored positive | 4.01 µM | – | –
5 | – | – | – | Cc1ccc2[nH]c(C)c(CCNC(=O)c3ccc(C(=O)c4ccccc4)o3)c2c1 [Compound 30, 5-Benzoyl-N-[2-(2,5-dimethyl-1H-indol-3-yl)ethyl]-2-furamide] | significantly less active than CK-666 | scored positive | 0.696 µM | – | –
6 | 5 to 20 µM (≈ 2.32 to 9.27 µg/mL) | 180 µM | saturation was not reached | Cc1[nH]c2ccc(OCc3ccccc3)cc2c1CCNC(=O)c1cccc(Br)c1 [Compound 59, N-{2-[5-(Benzyloxy)-2-methyl-1H-indol-3-yl]ethyl}-3-bromobenzamide] | – | scored positive | 11.5 µM | more active than CK-666 | Effect on archenteron elongation (sea urchin embryos): inhibited elongation of the archenteron at approximately half-size; Effect on primary mesenchyme cell (PMC) migration (sea urchin embryos): altered PMC migration resulting in the lack of ventrolateral clusters and spicules; Minimum effective concentration, Inhibition of Archenteron elongation (sea urchin embryos; [4]): 10 µM; Minimum effective concentration, Inhibition of Spicule formation (sea urchin embryos; [4]): 5 µM; Dose-dependent inhibition of lamellipodium formation, potency relative to CK-666 (B16-F1 cells [1]): slightly less active than CK-666; Cell rounding and detachment in wound healing assay (B16-F1 cells [2]; 25 µM): not observed; Cell rounding and detachment in wound healing assay (B16-F1 cells [2]; 100 µM): to a lesser extent 59 induced cell rounding followed by detachment from the substrate
7 | 5 to 20 µM (≈ 2.44 to 9.78 µg/mL) | 61 µM | 67% | Cc1[nH]c2c(Cl)cccc2c1CCNC(=O)c1cc(S(=O)(=O)N(C)C)c(Cl)cc1Cl [Compound 69, 2,4-Dichloro-N-[2-(7-chloro-2-methyl-1H-indol-3-yl)ethyl]-5-[(dimethylamino)sulfonyl]benzamide] | – | scored positive | 50.5 µM | inhibited cell migration as efficiently as 100 µM CK-666 | Developmental phenotype (sea urchin embryos; 12 μM, 22°C): Defective gastrulation; Effect on archenteron elongation (sea urchin embryos): inhibited elongation of the archenteron at approximately half-size; Effect on primary mesenchyme cell (PMC) migration (sea urchin embryos): altered PMC migration resulting in the lack of ventrolateral clusters and spicules; Minimum effective concentration, Inhibition of Archenteron elongation (sea urchin embryos; [4]): 5 µM; Minimum effective concentration, Inhibition of Spicule formation (sea urchin embryos; [4]): 5 µM
